Key:
[1] = tested on: 518A2; experiment: MTT antiproliferative assay; format: cell-based, human; details: 72 h, mean ± SD
Protocol: (§1) All of the cell lines were cultivated in DMEM medium (high glucose 4.5 g L^–1, PAA, Pasching, Austria) supplemented with gentamycin (50 μg mL^–1, Serva, Heidelberg, Germany) and 10% heat-inactivated fetal bovine serum (PAA). The medium for MRC5pd30 cells was further supplemented by 1% nonessential amino acids (Sigma-Aldrich, Prague, Czech Republic). All cells were cultured as adherent monolayers in a humidified incubator at 37 °C in a 5% CO2 atmosphere and subcultured twice a week with an appropriate plating density.
(§2) In vitro antiproliferative activity of Ru complexes was determined by the MTT or, alternatively, SRB assay as already described,[84] after 72 h of incubation of cells with various concentrations of the Ru complex. The reported IC50 values are an average of three independent experiments, each consisting of three replicates per concentration.

[2] = tested on: HCT116; experiment: MTT antiproliferative assay; format: cell-based, human; details: 72 h, mean ± SD
Protocol: as §1, §2

[3] = tested on: HeLa; experiment: MTT antiproliferative assay; format: cell-based, human; details: 72 h, mean ± SD
Protocol: as §1, §2

[4] = tested on: MCF-7; experiment: MTT antiproliferative assay; format: cell-based, human; details: 72 h, mean ± SD
Protocol: as §1, §2

[5] = tested on: RD; experiment: MTT antiproliferative assay; format: cell-based, human; details: 72 h, mean ± SD
Protocol: as §1, with “density. In vitro antiproliferative activity of Ru complexes was determined by the MTT or, alternatively, SRB assay as already described,[84] after 72 h of incubation of cells with various concentrations of the Ru complex. The reported IC50 values are an average of three independent experiments, each consisting of three replicates per concentration.” for “density.”

[6] = tested on: MRC5pd30; experiment: MTT assay on noncancerous cells; format: cell-based, human; details: 72 h, mean ± SD
Protocol: as §1, §2

[7] = tested on: HCT116; experiment: SRB antiproliferative assay; format: cell-based, human; details: SRB test, 72 h; mean ± SD
Protocol: as §2

[8] = tested on: CHO-K1; experiment: MTT assay, wild-type cells; format: cell-based, Chinese hamster; details: 72 h
Excerpt: (§3) The human cervical carcinoma HeLa cells and human colorectal carcinoma cells HCT116 were kindly supplied by Professor B. Keppler, University of Vienna (Austria). Human rhabdomyosarcoma RD cells were purchased from the American Type Culture Collection (ATCC, Manassas, VA). Human breast cancer MCF-7 cells, human skin melanoma 518A2 cells, and human MRC5pd30 cells derived from normal lung tissue were purchased from the European Collection of Authenticated Cell Cultures (ECACC) (Salisbury, U.K.). Chinese hamster ovary CHO-K1 cell line (wild type) and its derivative MMC-2 carrying the ERCC3/XPB mutation (NER-deficient) cell line were kindly supplied by Dr. […], Cancer Research Institute, Slovak Academy of Sciences, Bratislava (Slovakia). In vitro antiproliferative activity of Ru complexes was determined by the MTT or, alternatively, SRB assay as already described,[84] after 72 h of incubation of cells with various concentrations of the Ru complex. The reported IC50 values are an average of three independent experiments, each consisting of three replicates per concentration.

[9] = tested on: MMC-2; experiment: MTT assay, NER-deficient cells; format: cell-based, Chinese hamster; details: 72 h
Excerpt: as §3

[10] = tested on: HCT116 (3D); experiment: Cytotoxicity in 3D spheroids (colonospheres), Cell Titer-Glo 3D; format: cell-based, human; details: for effect on the morphology of 3D spheroids: 20 µM, 72 h, bright-field images; for IC50: Cell Titer-Glo, spheroids, 72 h of treatment
Protocol: A spontaneous spheroid formation was used to generate colonospheres derived from the HCT116 cell line. The HCT116 cells were seeded on 96-well ultralow attachment plates (1400 cells/well) and cultivated in a tumor sphere-forming medium (DMEM/F12, supplemented with B27 (Invitrogen), BSA, bFGF (10 ng mL^–1), and EGF (20 ng mL^–1)) for 4 days. After the incubation period, colonospheres were treated with Ru complexes for another 3 days. The viability of colonospheres was determined by the Cell Titer-Glo 3D cell viability assay (Promega) according to the manufacturer’s instructions. The reported IC50 values are the average of three independent experiments, each consisting of three replicates per concentration level. Bright-field images of the spheroids were taken as well to determine the effect on the morphology of the spheroids.

[11] = tested on: mitochondria of HCT116 cells; experiment: Ru content in isolated mitochondria (ICP-MS); format: cell-based, human; details: HCT116, 10 μM, 24 h
Protocol: The HCT116 cells were seeded at a density of 3 × 10^6 cells/10 mL Petri dish and incubated overnight. The cells were treated with Ru complexes (10 μM) for 24 h, harvested, and washed with ice-cold PBS, and mitochondrial fractions were extracted by the Mitochondrial Isolation Kit (MITOISO2, Sigma-Aldrich) according to the manufacturer’s instructions. The Ru content in each sample was evaluated by ICP-MS. The measurement was performed in triplicate.

[12] = tested on: HCT116 cells; experiment: Calcium flux, Rhod-2 and Fluo-4 probes; format: cell-based, human; details: for effect on Ca2+ flux into the mitochondria induced by ionomycin: 2.5 h pretreatment, 10 μM (1 also 2.5, 5 μM), Rhod-2, 5 μM ionomycin
Protocol: The distribution of calcium ions in cytosol and mitochondria was studied using calcium-sensitive fluorescent probes. HCT116 cells were seeded at a density of 2 × 10^5 cells/well on six-well plates. After overnight cultivation, the cells were treated with Ru complexes at indicated concentrations for 2.5 h. The culture medium was then replaced with either 5 μM Rhod-2 or Fluo-4 in PBS supplemented with 2 mM CaCl2 and incubated for 30 min at 37 °C. At last, cells were harvested and suspended in PBS (with 2 mM CaCl2) or in PBS (with 2 mM CaCl2) supplemented with ionomycin (5 μM) for 30 min at 37 °C and analyzed using a BD FACSverse flow cytometer.

Work on “[RuCl(κ^3-tpm)(PPh3){P(OMe)3}]Cl [compound 7]” yielded an IC50 [1] of 6.8 ± 0.8 µM, an IC50 [2] of 6.7 ± 0.4 µM and an IC50 [3] of 10 ± 2 µM. It also gave an IC50 [4] of 6 ± 1 µM, an IC50 [5] of 6 ± 1 µM and an IC50 [6] of 24 ± 1 µM. The IC50 [7] was 5.8 ± 0.6 µM, the IC50 [8] was 25.6 ± 0.5 µM and the IC50 [9] was 33 ± 2 µM. For the same substance, the “effect on the morphology of 3D spheroids” value [10] was “heterogeneous morphology with several dissociated cell clumps”, the IC50 [10] was 12.2 ± 2.5 µM and the “Ru in isolated mitochondria” value [11] was 127 ± 24 pg Ru/10^6 cells. The “effect on Ca2+ flux into the mitochondria induced by ionomycin” value (from here on “effect … by ionomycin”) [12] was “less pronounced”.

Substance “[RuCl(κ^3-tpm)(PPh3)(CNCy)]Cl [compound 8]” has an IC50 [1] of 10 ± 2 µM, an IC50 [2] of 8 ± 2 µM and an IC50 [3] of 15 ± 1 µM. The IC50 [4] was 10 ± 2 µM, the IC50 [5] was 6.6 ± 0.7 µM and the IC50 [6] was 19.7 ± 0.4 µM. The IC50 [7] was 5.2 ± 0.5 µM, the IC50 [8] was 16 ± 4 µM and the IC50 [9] was 16 ± 3 µM. For the same substance, the “effect on the morphology of 3D spheroids” value [10] was “heterogeneous morphology with several dissociated cell clumps”, the IC50 [10] was 12.1 ± 2.7 µM and the “Ru in isolated mitochondria” value [11] was 70 ± 15 pg Ru/10^6 cells. The “effect … by ionomycin” value [12] was “less pronounced”.

For [RuCl(κ^3-tpm)(PPh3)2]Cl [compound 1], the IC50 [1] was 2.6 ± 0.4 µM, the IC50 [2] was 1.5 ± 0.1 µM and the IC50 [3] was 4 ± 0.4 µM. It also gave an IC50 [4] of 2.4 ± 0.6 µM, an IC50 [5] of 2.2 ± 0.2 µM and an IC50 [6] of 5.8 ± 0.7 µM. For the same substance, the IC50 [7] was 0.45 ± 0.05 µM, the IC50 [8] was 6.3 ± 0.2 µM and the IC50 [9] was 7.7 ± 0.2 µM. The “effect on the morphology of 3D spheroids” value [10] was “almost completely disintegrated”, the “fold more effective than cisplatin” value ([10]; 3D spheroids HCT116) was “approximately 18 fold” and the IC50 [10] was 2.5 ± 0.6 µM. For the same substance, the “Ru in isolated mitochondria” value [11] was 467 ± 66 pg Ru/10^6 cells, the “increase in the concentration of Ca2+ in the cytoplasm” value ([12]; 2.5 h, 10 μM, Fluo-4) was “most prominent” and the “effect … by ionomycin” value [12] was “reduced Ca^2+ flux into the mitochondria”.

With “[RuCl(κ^3-tpm)(PPh3){NCHN(Me)(CH)2}]Cl [compound 3]” the IC50 [1] was 33 ± 5 µM, the IC50 [2] was 25 ± 1 µM and the IC50 [3] was 91 ± 3 µM. It also gave an IC50 [4] of 38 ± 8 µM, an IC50 [5] of 27 ± 4 µM and an IC50 [6] of 83.6 ± 0.5 µM. The IC50 [7] was 16 ± 2 µM.

“[RuCl(κ^3-tpm)(PPh3){CNCH2P(O)(OEt2)2}]Cl [compound 9]” was tested, and the IC50 [1] was 38 ± 7 µM, the IC50 [2] was 35 ± 6 µM and the IC50 [3] was 36 ± 2 µM. The IC50 [4] was 43 ± 7 µM, the IC50 [5] was 24 ± 3 µM and the IC50 [6] was 50.8 ± 0.4 µM. The IC50 [7] was 29 ± 3 µM and the “effect … by ionomycin” value [12] was “insignificant”.
